≈ marks a conversion by molar mass, not a printed value.
Experiments:
SK-OV-3 = assay: Cytotoxicity against human SKOV3 cells; format: functional, cell-based
KB = assay: Cytotoxicity against human KB cells; format: functional, cell-based
Plasmodium falciparum [1] = assay: Antiplasmodial activity against Plasmodium falciparum D6; format: functional, organism-based
Cryptococcus neoformans = assay: Antifungal activity against Cryptococcus neoformans; format: functional, organism-based
Plasmodium falciparum [2] = assay: Antiplasmodial activity against chloroquine-resistant Plasmodium falciparum W2; format: functional, organism-based
SK-MEL = assay: Cytotoxicity against human SK-MEL cells; format: functional, cell-based
Candida albicans = assay: Antifungal activity against Candida albicans; format: functional, organism-based

| Structure (SMILES) | IC50 (Plasmodium falciparum [1]) | IC50 (Cryptococcus neoformans) | IC50 (SK-MEL) | IC50 (Candida albicans) | further results |
| --- | --- | --- | --- | --- | --- |
| C=C1CC[C@@H](O)[C@]2(C)C[C@@H]3OC(=O)[C@H](C)[C@H]3[C@H](OC(C)=O)[C@@H]12 |  |  |  |  | IC50 (SK-OV-3): 8 µg/mL (≈ 25.9 µM); IC50 (KB): 1.1 µg/mL (≈ 3.57 µM) |
| CC(=O)O[C@H]1[C@H]2[C@H](C[C@]3(C)[C@@H]1[C@](C)(O)CC[C@H]3OC(C)=O)OC(=O)[C@@H]2C | 0.32 µg/mL (≈ 0.869 µM) | 25 µg/mL (≈ 67.9 µM) |  |  | IC50 (Plasmodium falciparum [2]): 0.38 µg/mL (≈ 1.03 µM) |
| C=C1CC[C@@H](O)[C@]2(C)C[C@@H]3OC(=O)[C@H](C)[C@H]3[C@H](O)[C@@H]12 |  | 35 µg/mL (≈ 131 µM) |  |  |  |
| CC1=CC[C@@H](O)[C@]2(C)C[C@@H]3OC(=O)[C@H](C)[C@H]3[C@H](O)[C@@H]12 |  |  | 7.5 µg/mL (≈ 28.2 µM) |  |  |
| CC(=O)O[C@H]1[C@H]2[C@H](C[C@@]3(C)[C@H](O)CC[C@@](C)(O)[C@H]13)OC(=O)[C@@H]2C | 0.88 µg/mL (≈ 2.7 µM) |  |  | 10 µg/mL (≈ 30.6 µM) |  |
| C=C1C(=O)O[C@H]2C[C@@]3(C)O[C@@H]3CC/C(C)=C/[C@@H](OC(C)=O)[C@H]12 [PYRETHROSIN] |  |  | 4.2 µg/mL (≈ 13.7 µM) | 30 µg/mL (≈ 97.9 µM) |  |
